Test results as given in ChEMBL document CHEMBL1133908, “Novel 3-(2-adamantyl)pyrrolidines with potent activity against influenza A virus-identification of aminoadamantane derivatives bearing two pharmacophoric amine groups” (2001).
In brackets after ≈: the same amount, converted by molar mass.

Legend:
MDCK [1] = assay: Minimum cytotoxic concentration required to cause a microscopically detectable alteration of normal cell morphology in madin-Darby canine kidney cells (MDCK); type: functional, Canis lupus familiaris
MDCK [2] = assay: Minimum inhibitory concentration required to reduce influenza A H2N2 virus induced cytopathogenicity by 50% in madin-Darby canine kidney cells (MDCK); type: functional; settings: Canis lupus familiaris
MDCK [3] = assay: Minimum inhibitory concentration required to reduce influenza A H3N2 (X31) virus induced cytopathogenicity by 50% in madin-Darby canine kidney cells (MDCK); type: functional; settings: Canis lupus familiaris

Work on `NC12CC3CC(CC(C3)C1)C2` [AMANTADINE] yielded an MCC50 (MDCK [1]) greater than 533.3 µM, an MIC50 (MDCK [2]) of 2.6 µM (≈ 0.393 µg/mL) and an MIC50 (MDCK [3]) of 12.8 µM (≈ 1.94 µg/mL).

`C1CCN(CCN2CCC(C3C4CC5CC(C4)CC3C5)C2)CC1` (stereo unspecified) was tested, and the MCC50 (MDCK [1]) was 14.6 µM, the MIC50 (MDCK [2]) was 1.7 µM (≈ 0.538 µg/mL) and the MIC50 (MDCK [3]) was 0.35 µM (≈ 0.111 µg/mL).

Molecule `CN1CCC(C2C3CC4CC(C3)CC2C4)C1` (stereo unspecified) has an MCC50 (MDCK [1]) greater than 156.4 µM, an MIC50 (MDCK [2]) of 18.8 µM (≈ 4.12 µg/mL) and an MIC50 (MDCK [3]) of 18.8 µM (≈ 4.12 µg/mL).

Work on `CCN1CCC(C2C3CC4CC(C3)CC2C4)C1` (stereo unspecified) yielded an MCC50 (MDCK [1]) of 148.2 µM, an MIC50 (MDCK [2]) greater than 29.7 µM and an MIC50 (MDCK [3]) greater than 29.7 µM.

For `CN(C)CCN1CCC(C2C3CC4CC(C3)CC2C4)C1` (stereo unspecified), the MCC50 (MDCK [1]) was 78.7 µM, the MIC50 (MDCK [2]) was 0.38 µM (≈ 0.105 µg/mL) and the MIC50 (MDCK [3]) was 9.4 µM (≈ 2.6 µg/mL).

Work on `NC(=O)c1ncn([C@@H]2O[C@H](CO)[C@@H](O)[C@H]2O)n1` [RIBAVIRIN] yielded an MCC50 (MDCK [1]) greater than 1024.6 µM, an MIC50 (MDCK [2]) of 615 µM (≈ 150 µg/mL) and an MIC50 (MDCK [3]) of 123 µM (≈ 30 µg/mL).

In the case of `CCCCN1CCC(C2C3CC4CC(C3)CC2C4)C1` (stereo unspecified), the MCC50 (MDCK [1]) is reported as 134.3 µM, the MIC50 (MDCK [2]) is reported as greater than 26.9 µM and the MIC50 (MDCK [3]) is reported as greater than 26.9 µM.

`CCN(CC)CCN1CCC(C2C3CC4CC(C3)CC2C4)C1` (stereo unspecified) gave an MCC50 (MDCK [1]) of 74.5 µM, an MIC50 (MDCK [2]) of 8.9 µM (≈ 2.71 µg/mL) and an MIC50 (MDCK [3]) greater than 14.9 µM.

For `C1CC(C2C3CC4CC(C3)CC2C4)CN1` (stereo unspecified), the MCC50 (MDCK [1]) was 124.4 µM, the MIC50 (MDCK [2]) was 0.6 µM (≈ 0.123 µg/mL) and the MIC50 (MDCK [3]) was 5 µM (≈ 1.03 µg/mL).

`CN(C)CCN1CCC(C2C3CC4CC(C3)CC2C4)C1=O` (stereo unspecified) was tested, and the MCC50 (MDCK [1]) was 122.4 µM, the MIC50 (MDCK [2]) was 14.7 µM (≈ 4.27 µg/mL) and the MIC50 (MDCK [3]) was 14.7 µM (≈ 4.27 µg/mL).

`CCN(CC)CCN1CCC(C2C3CC4CC(C3)CC2C4)C1=O` (stereo unspecified) showed an MCC50 (MDCK [1]) of 92 µM, an MIC50 (MDCK [2]) of 11.1 µM (≈ 3.54 µg/mL) and an MIC50 (MDCK [3]) of 11.1 µM (≈ 3.54 µg/mL).

`CCCN1CCC(C2C3CC4CC(C3)CC2C4)C1` (stereo unspecified) was tested, and the MCC50 (MDCK [1]) was 140.9 µM, the MIC50 (MDCK [2]) was greater than 28.2 µM and the MIC50 (MDCK [3]) was greater than 28.2 µM.
